Measurements reported in patent US11078462B2, “Perivascular stromal cells from primate pluripotent stem cells” (ReCyte Therapeutics, Inc., priority 2014, dated 2021).
Where a name gives a salt, the structure may show the parent alone.

System: HUVEC+017-PC-M co-cultures
Assay: Kit co-culture assay to study angiogenesis in vitro (tube formation on MATRIGEL)
Format: cell-based, human
Procedure: A kit has been developed to provide a unique, robust co-culture assay to study angiogenesis in vitro. In this model system, we utilize a unique perivascular stromal cell line (017-PC-M) that when co-cultured with human umbilical vein endothelial cells (HUVEC) results in the rapid formation of large angiogenic networks with long-term stability of 4-6 days without the need for additional growth factors and complex media supplements.
VASCULIFE® assay media: VASCULIFE® basal media plus 10 mM L-glutamine (final concentration)
Assay Protocol: • 1. Four days (Day −4) prior to assay, HUVECs should be thawed and seeded at 3.5×10^4 cells per cm^2 into a 150 cm^2 tissue culture flask containing VASCULIFE® growth media. Incubate cells at 37° C. and 5% CO2. Exchange full volume of media every 1-2 days. • 2. Two days (Day −2) prior to assay, PC-M cells should be thawed and seeded at 10×10^4 cells per cm^2 into a 150 cm^2 tissue culture flask containing VASCULIFE® growth media. Incubate cells at 37° C. and 5% CO2. Exchange full volume of media every 1-2 days. • 3. At Day 0, prepare 96-well plate with MATRIGEL® coating of 50 μL per well. Let plate warm for at least 1 hour prior to seeding cells. • 4. Prepare assay solution: dilute L-glutamine into VASCULIFE® medium. • 5. On Day 0, harvest both HUVECs and PC-M cells. Recommended: Use 5-7.5 mL ACCUTASE® treatment for 3-5 minutes to detach cells, then quench Accutase® with an equivolume of Vasculife® growth media before pelleting cells. • 6. Prepare VASCULIFE® assay media (500 μL per each triplicate condition). • 7. Pellet cells at 250-350 rpm for 5 minutes at room temperature. • 8. Decant media and re-suspend into 1 mL of VASCULIFE® assay media. • 9. Measure cell concentration and viability:
• 10. Mix cells at a ratio of 3:1 HUVECs: 017-PC-M cells and seed at a final density of 37,500 cells per well. For one set of triplicates, mix approximately 85,000 HUVECs with 28,000 017-PC-M cells. • 11. Allow co-culture to adhere at 37° C. for 3-4 hours. • 12. […]

## basic FGF: basic fibroblast growth factor added to the assay media
Concentrations ≥10 ng/mL, monocultures of HUVECs, of 017-PC-M cells and/or co-cultures
  tube formation after addition of basic FGF to the assay media: little to no tube formation

## VEGF
VEGF concentrations ≤2.5 ng/mL or ≥10 ng/mL, monocultures and/or co-cultures
  formation of tubes after addition of VEGF to the assay media: may inhibit formation of tubes

## Cc1ccc(C(=O)Nc2ccc(S(=O)(=O)O)c3cc(S(=O)(=O)O)cc(S(=O)(=O)O)c23)cc1NC(=O)c1cccc(NC(=O)Nc2cccc(C(=O)Nc3cc(C(=O)Nc4ccc(S(=O)(=O)O)c5cc(S(=O)(=O)O)cc(S(=O)(=O)O)c45)ccc3C)c2)c1 [Suramin, suramin hexasodium salt]
Addition of 50 μM Suramin
  reduce tube formation: > 90%
